Here are results for 17 compounds from patent publication US8846704B2, “Thiopyrimidine-based compounds and uses thereof” (YM Biosciences Austraila Pty Ltd, priority 2007, dated 2014).

What all share (format): cell-based
Assay [1] addresses T1, BaF3 TELJAK2 cells (BafT_J2) (Homo sapiens, UniProt O60674).
T1 construct: fused on or other part: TEL (ETV6) N-terminal part, coding nucleotides 1-487, serves as the oligomerising partner; It is fused through a Sal I site to the JAK2 kinase domain and expressed from pTRE2 in BaF3 cells bearing pTET-off; P41212 (Transcription factor ETV6)
Kind of assay: Cellular screening, BaF3 TEL:JAK2 cells, Alamar Blue. As to conditions: 40 hr, read-out: BafT_J2 IC50_nM. Here is the method: (§1) For screening purposes, compounds were diluted in 96 well plates at a concentration of 20 μM. Plates were warmed at 37° C. for 30 minutes before the assay was performed.
(§2) The coding region encompassing nucleotides 1-487 of TEL was amplified by PCR using the oligonucleotides STEL (5′-GGAGGATCCTGATCTCTCTCGCTGTGAGAC-3′) [SEQ ID NO 14] and 3TEL (5′-AGGC GTCGACTTCTTCTTCATGGTTCTG-3′) [SEQ ID NO 15] and U937 mRNA as a template. A […] restriction site was incorporated into the STEL primer, and a Sal I restriction site was incorporated into the 3TEL primer. The regions encompassing the kinase domain of JAK2 (nucleotides 2994-3914; JAK2F 5′-ACGC GTCGACGGTGCCTTTGAAGACCGGGAT-3′ [SEQ ID NO 16]; JAK2R 5′-ATAGTTTAGCGGCCGCTCAGAATGAAGGTCATTT-3′) [SEQ ID NO 17] and JAK3 (nucleotides 2520-3469; JAK3F 5′-GAAGTCGACTATGCCTGCCAAGACCCCACGATCTT-3′) [SEQ ID NO 18] were generated by PCR using Taq DNA polymerase (Gibco/BRL) and […] as a template. A Sal I restriction site was incorporated into the forward primer of JAK2 and JAK3, a Not I site was incorporated into the JAK2 reverse primer and a Xba I site was added to the reverse primer of JAK3.
A TEL/Jak2 fusion was generated by digestion of the TELPCR product with BamH I/Sal I restriction enzymes, digestion of the JAK2 PCR product with Sal I/Not I restriction enzymes, followed by ligation and subcloning of the ligation product into the mammalian expression Vector pTRE 2 (Clontech), which was prepared by digestion with BamH I-Not I restriction enzymes, to give the TEL/Jak2 fusion plasmid pTELJAK2.
(§3) The growth factor dependant myelomonocytic cell line BaF3 bearing the pTET-off plasmid (Clontech) was transfected with either pTELJAK2 or pTELJAK3, and the transfected cells were selected for growth-factor independent cell growth. The BaF3 wild-type cells were cultured in DMEM containing 10% FCS, 10% WEHI 3B conditioned medium. The BaF3 TELJAK cells ([…]) were cultured in DMEM 10% Tet-System Approved FBS (without WEHI 3B conditioned medium).
(§4) Cell suspensions were prepared by harvesting cells from culture (the cells used in this test were in late log phase growth with high viability.) Cells were diluted in the appropriate growth medium, as described above, to 1.1× final concentration (from 50,000 cell/mL to 200,000 cell/mL, depending on cell line).
(§5) Compounds to be tested were added (10 μL, 10× final concentration) to a flat bottomed 96-well plate. The cellular suspension (90 μL per well) was then added, and the plate incubated for 40 hr at 37° C., 5% CO2. Alamar Blue 10 μL per well was added and the plates returned to the incubator for a further 4-6 hours. The plates were then read at 544 nm.
(The colour change of resazurin is a common sign of viable cells or microbes.)

Assay [2] concerns the target T2, BaF3 TELJAK3 cells (Homo sapiens, UniProt P52333).
T2 construct: fused on or other part: TEL (ETV6) N-terminal part, coding nucleotides 1-487, serves as the oligomerising partner; It is fused through a Sal I site to the JAK3 kinase domain and expressed from pTRE2 in BaF3 cells bearing pTET-off; P41212 (Transcription factor ETV6)
T2 sequence (P52333 1-1124): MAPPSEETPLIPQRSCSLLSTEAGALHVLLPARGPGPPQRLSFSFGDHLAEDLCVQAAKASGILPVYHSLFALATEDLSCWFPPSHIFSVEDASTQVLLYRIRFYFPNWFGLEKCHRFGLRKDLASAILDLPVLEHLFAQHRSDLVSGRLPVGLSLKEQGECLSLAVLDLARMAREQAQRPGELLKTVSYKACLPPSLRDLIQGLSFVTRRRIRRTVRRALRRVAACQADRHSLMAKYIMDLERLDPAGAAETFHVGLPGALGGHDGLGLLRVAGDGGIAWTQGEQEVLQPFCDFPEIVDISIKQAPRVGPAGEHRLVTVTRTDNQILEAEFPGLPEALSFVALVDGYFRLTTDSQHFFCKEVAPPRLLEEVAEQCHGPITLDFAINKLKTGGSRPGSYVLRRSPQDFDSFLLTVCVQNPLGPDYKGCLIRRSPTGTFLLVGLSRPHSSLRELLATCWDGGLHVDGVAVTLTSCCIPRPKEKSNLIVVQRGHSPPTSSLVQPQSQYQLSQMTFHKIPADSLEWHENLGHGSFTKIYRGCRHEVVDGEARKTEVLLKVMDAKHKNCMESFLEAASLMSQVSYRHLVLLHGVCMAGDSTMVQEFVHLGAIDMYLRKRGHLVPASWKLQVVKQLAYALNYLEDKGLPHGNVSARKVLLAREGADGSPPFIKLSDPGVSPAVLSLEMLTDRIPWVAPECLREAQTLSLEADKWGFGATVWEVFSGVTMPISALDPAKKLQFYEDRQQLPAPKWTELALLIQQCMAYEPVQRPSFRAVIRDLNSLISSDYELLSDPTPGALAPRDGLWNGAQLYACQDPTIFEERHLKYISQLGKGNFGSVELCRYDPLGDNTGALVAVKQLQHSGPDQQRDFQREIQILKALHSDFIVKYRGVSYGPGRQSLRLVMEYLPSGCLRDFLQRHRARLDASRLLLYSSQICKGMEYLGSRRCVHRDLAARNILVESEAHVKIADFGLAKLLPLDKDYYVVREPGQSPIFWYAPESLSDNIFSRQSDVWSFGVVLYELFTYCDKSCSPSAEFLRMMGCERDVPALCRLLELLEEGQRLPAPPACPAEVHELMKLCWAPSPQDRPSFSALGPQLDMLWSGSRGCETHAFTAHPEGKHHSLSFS
Kind of assay: Cellular screening, BaF3 TEL:JAK3 cells, Alamar Blue. The settings on record: 40 hr, read-out: BafT_J3 IC50_nM. Here is the method: as §1, §2
The TEL/Jak3 fusion was prepared by ligation of the JAK3 Sal I/Not I cleaved kinase domain PCR product with the BamH I/Sal I restriction digested TEL product, followed by ligation of the ligation product into the BamH I/Not I digested pTRE2, to give the TEL/Jak3 fusion plasmid pTELJAK3.
as §3, §4, §5

Assay [3] deals with BaF3 wild-type cells. Kind of assay: Cellular screening, BaF3 wild-type cells, Alamar Blue. The settings on record: Mus musculus, 40 hr, read-out: BAF3wt IC50_nM. On the procedure: as §1, §3, §4, §5

T1 sequence (O60674 whole entry, change not shown, the tested form may be a part): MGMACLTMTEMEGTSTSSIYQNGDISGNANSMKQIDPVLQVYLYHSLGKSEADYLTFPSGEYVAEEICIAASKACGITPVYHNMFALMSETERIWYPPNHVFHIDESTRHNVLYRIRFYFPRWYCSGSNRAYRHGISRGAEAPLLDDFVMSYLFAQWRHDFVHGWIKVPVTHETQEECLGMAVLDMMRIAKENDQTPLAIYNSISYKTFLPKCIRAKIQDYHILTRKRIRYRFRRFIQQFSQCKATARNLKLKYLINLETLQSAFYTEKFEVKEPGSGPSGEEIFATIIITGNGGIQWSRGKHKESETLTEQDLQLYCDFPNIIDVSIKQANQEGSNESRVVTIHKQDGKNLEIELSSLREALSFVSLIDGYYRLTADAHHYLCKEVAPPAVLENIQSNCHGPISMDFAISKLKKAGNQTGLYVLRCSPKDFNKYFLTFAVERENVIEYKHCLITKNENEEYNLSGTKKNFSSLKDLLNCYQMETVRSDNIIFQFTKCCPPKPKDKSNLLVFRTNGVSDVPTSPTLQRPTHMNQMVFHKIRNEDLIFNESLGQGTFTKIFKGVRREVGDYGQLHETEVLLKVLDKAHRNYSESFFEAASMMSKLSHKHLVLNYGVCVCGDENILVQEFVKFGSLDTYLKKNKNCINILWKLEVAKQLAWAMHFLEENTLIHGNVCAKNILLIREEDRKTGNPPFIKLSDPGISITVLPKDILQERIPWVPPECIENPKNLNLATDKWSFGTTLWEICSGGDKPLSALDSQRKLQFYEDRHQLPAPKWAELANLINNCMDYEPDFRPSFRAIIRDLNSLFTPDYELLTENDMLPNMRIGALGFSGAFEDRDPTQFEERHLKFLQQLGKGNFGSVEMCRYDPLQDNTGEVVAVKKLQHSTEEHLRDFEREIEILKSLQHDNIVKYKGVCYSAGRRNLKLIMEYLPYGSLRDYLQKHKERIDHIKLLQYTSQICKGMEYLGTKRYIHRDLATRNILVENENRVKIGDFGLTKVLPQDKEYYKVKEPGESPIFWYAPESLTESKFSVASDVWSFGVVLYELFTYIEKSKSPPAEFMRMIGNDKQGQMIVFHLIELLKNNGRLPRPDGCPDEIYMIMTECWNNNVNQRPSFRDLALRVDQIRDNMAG

Take `CC#CC(=O)Nc1ccc(Sc2ccnc(Nc3cccc(N4CCOCC4)c3)n2)cc1` [Compound 233, N-(4-(2-(3-morpholinophenylao)pyrimidin-4-ylthio)phenyl)but-2-ynamide]: the GI50 in assay [1] was < 5 µM; in assay [2] it was < 1 µM. The IC50 in assay [3] is < 5 µM.
As to `C=CC(=O)Nc1ccc(Sc2nc(Nc3ccc(N4CCOCC4)cc3)ncc2F)cc1` [Compound 268, N-(4-(5-fluoro-2-(4-morpholinophenylao)pyrimidin-4-ylthio)phenyl)acrylamide], the values for the GI50 in assay [1] and in assay [2] were > 20 µM and < 1 µM, respectively. Besides, the IC50 in assay [3] was > 20 µM.
For `C=CC(=O)Nc1ccc(Sc2nc(Nc3cccc(CO)c3)ncc2C)cc1` [Compound 280, N-(4-(2-(3-(hydroxymethyl)phenylao)-5-methylpyrimidin-4-ylthio)phenyl)acrylamide], the values for the GI50 in assay [1] and in assay [2] were < 20 µM and < 1 µM, respectively. Also, the IC50 in assay [3] is < 20 µM.
`C=CC(=O)Nc1ccc(Sc2nc(Nc3ccc(N4CCOCC4)cc3)ncc2Br)cc1` [Compound 306, N-(4-(5-bromo-2-(4-morpholinophenylao)pyrimidin-4-ylthio)phenyl)acrylamide]: the GI50 in assay [1] is > 20 µM; in assay [2], < 1 µM. Further, the IC50 in assay [3] was > 20 µM.
On to `NCc1cccc(Sc2ccnc(Nc3ccc(N4CCOCC4)cc3)n2)c1` [Compound 75, 4-(3-(aomethyl)phenylthio)-N-(4-morpholinophenyl)pyrimidin-2-ae], for which the GI50 in assay [1] and in assay [2] was < 20 µM throughout. Further, the IC50 in assay [3] is < 20 µM.
For `Cc1cc(Sc2nc(Nc3ccc(N4CCOCC4)cc3)ncc2C)ccc1N` [Compound 255, 4-(4-ao-3-methylphenylthio)-5-methyl-N-(4-morpholinophenyl)pyrimidin-2-ae], the GI50 in assay [1] and in assay [2] was < 20 µM each time. Besides, the IC50 in assay [3] was < 20 µM.
As to `C=CC(=O)NCc1cccc(Sc2ccnc(Nc3ccc(N4CCOCC4)cc3)n2)c1` [Compound 112, N-(3-(2-(4-morpholinophenylamino)pyrimidin-4-ylthio)benzyl)acrylamide], the GI50 in assay [1] and in assay [2] was < 20 µM in each case. Further, the IC50 in assay [3] is > 20 µM.
As for `C=CC(=O)Nc1ccc(Sc2nc(Nc3ccc(N4CCOCC4)nc3)ncc2C)cc1` [Compound 254, N-(4-(5-methyl-2-(6-morpholinopyridin-3-ylao)pyrimidin-4-ylthio)phenyl)acrylamide], the GI50 in assay [1] is < 5 µM; in assay [2], < 1 µM. In addition, the IC50 in assay [3] was < 5 µM.
Consider `Nc1ccc(Sc2nc(Nc3ccc(N4CCOCC4)cc3)ncc2F)cc1` [Compound 263, 4-(4-aophenylthio)-5-fluoro-N-(4-morpholinophenyl)pyrimidin-2-ae], for which the GI50 in assay [1] and in assay [2] was < 5 µM each time. Further, the IC50 in assay [3] is < 5 µM.
Consider `Cc1cnc(Nc2ccc(N3CCOCC3)cc2)nc1Sc1ccc(N)nc1` [Compound 262, 4-(6-aopyridin-3-ylthio)-5-methyl-N-(4-morpholinophenyl)pyrimidin-2-ae], for which the figures for the GI50 in assay [1] and in assay [2] were < 20 µM and > 20 µM, respectively. In assay [3], the IC50 was > 20 µM.
Consider `Cc1cnc(Nc2ccc(N3CCOCC3)cc2)nc1Sc1ccc(NC(=O)CSCC(=O)O)cc1` [Compound 230, 2-(2-(4-(5-methyl-2-(4-morpholinophenylao)pyrimidin-4-ylthio)phenylao)-2-oxoethylthio)acetic acid], for which the GI50 in assay [1] and in assay [2] was > 20 µM each time. In addition, in assay [3], the IC50 is > 20 µM.
For `N#CCNCc1cccc(Sc2ccnc(Nc3ccc(N4CCOCC4)cc3)n2)c1` [Compound 68, 2-(3-(2-(4-morpholinophenylao)pyrimidin-4-ylthio)benzylao)acetonitrile], the GI50 in assay [1] and in assay [2] was < 20 µM in each case. For the same compound, the IC50 in assay [3] is > 20 µM.
As to `C=CC(=O)Nc1ccc(Sc2ccnc(Nc3cccc(O)c3)n2)cc1` [Compound 277, N-(4-(2-(3-hydroxyphenylao)pyrimidin-4-ylthio)phenyl)acrylamide], the GI50 in assay [1] is < 5 µM; in assay [2], < 1 µM. Further, in assay [3], the IC50 was > 20 µM.
`C=CC(=O)Nc1ccc(Sc2nc(Nc3ccc(NS(C)(=O)=O)cc3)ncc2C)cc1` [Compound 285, N-(4-(5-methyl-2-(4-(methylsulfonamido)phenylao)pyrimidin-4-ylthio)phenyl)acrylamide]: the GI50 in assay [1] was < 5 µM; in assay [2], < 1 µM. In addition, in assay [3], the IC50 is < 5 µM.
With `O=C(/C=C\Cl)Nc1ccc(Sc2ccnc(Nc3ccc(N4CCOCC4)cc3)n2)cc1` [Compound 346, (Z)-3-chloro-N-(4-(2-(4-morpholinophenylao)pyrimidin-4-ylthio)phenyl)acrylamide], the GI50 in assay [1] and in assay [2] was < 1 µM each time. For the same compound, the IC50 in assay [3] is < 1 µM.
With `C=CC(=O)Nc1ccc(Sc2nc(Nc3cccc(N4CCOCC4)c3)ncc2F)cc1` [Compound 267, N-(4-(5-fluoro-2-(3-morpholinophenylao)pyrimidin-4-ylthio)phenyl)acrylamide], the GI50 is < 5 µM in assay [1] and < 1 µM in assay [2]. In addition, the IC50 in assay [3] is < 5 µM.
Consider `Nc1ccc(Sc2ccnc(Nc3ccc(N4CCOCC4)cc3)n2)cc1` [Compound 27, 4-(4-aophenylthio)-N-(4-morpholinophenyl)pyrimidin-2-ae], for which the GI50 in assay [1] is > 20 µM; in assay [2], < 20 µM. The IC50 in assay [3] is < 20 µM.
